Measured values: the NIST ThermoML archive (doi:10.1016/j.jct.2006.09.014)
“And” between values parts separate entries of the source, which are not always exact repeats. Identical values can stand only once.

Settings: Liquid; for mass density: Bellows volumetry; for vapor or sublimation pressure: Closed cell (Static) method

CCCC [butane]
Settings	mass density [kg/m3]
280 K, 145 kPa	594.1
280 K, 168.4 kPa	594.15
280 K, 191.6 kPa	594.23
280 K, 215 kPa	594.24
280 K, 238.3 kPa	594.32
280 K, 261.7 kPa	594.34
280 K, 285 kPa	594.4
300 K, 271.4 kPa	571.6
300 K, 294.8 kPa	571.61
300 K, 318.1 kPa	571.67
300 K, 341.4 kPa	571.69
300 K, 364.8 kPa	571.72
300 K, 388.1 kPa	571.76
300 K, 411.5 kPa	571.8
320 K, 469.7 kPa	547.03
320 K, 493 kPa	547.12
320 K, 516.3 kPa	547.15
320 K, 539.6 kPa	547.22
320 K, 563 kPa	547.25
320 K, 586.3 kPa	547.25
320 K, 609.6 kPa	547.3
340 K, 763.1 kPa	520.53
340 K, 786.4 kPa	520.62
340 K, 809.7 kPa	520.68
340 K, 833 kPa	520.72
340 K, 856.3 kPa	520.82
340 K, 879.7 kPa	520.9
340 K, 903 kPa	520.96
360 K, 1176.4 kPa	490.56
360 K, 1199.7 kPa	490.68
360 K, 1223 kPa	490.79
360 K, 1246.3 kPa	490.91
360 K, 1269.6 kPa	490.99
360 K, 1292.9 kPa	491.01
360 K, 1316.1 kPa	491.18
380 K, 1759.6 kPa	454.68
380 K, 1782.8 kPa	454.9
380 K, 1806.1 kPa	455.09
380 K, 1829.3 kPa	455.25
380 K, 1852.5 kPa	455.46
380 K, 1875.8 kPa	455.6
380 K, 1899 kPa	455.78
424 K, 3720.3 kPa	289.99
424 K, 3720.4 kPa	289.82
424 K, 3728.4 kPa	294.73
424 K, 3737.3 kPa	298.52

Settings	mass density [kg/m3]	vapor or sublimation pressure
280 K	594.08	133 kPa
300 K	571.57	257.5 kPa
320 K	547.03	456.2 kPa
340 K	520.5	752 kPa
360 K	490.55	1170.2 kPa
370 K	–	1434.9 kPa
380 K	454.55	1739.9 kPa and 1740.4 kPa
390 K	–	2092.1 kPa
400 K	–	2495.2 kPa and 2494.6 kPa
410 K	–	2955 kPa
420 K	–	3482.5 kPa
422 K	–	3597.5 kPa
424 K	288.22	3716.9 kPa
